This note sets out measurements from article PMC7997578, “Design, Synthesis, Dynamic Docking, Biochemical Characterization, and in Vivo Pharmacokinetics Studies of Novel Topoisomerase II Poisons with Promising Antiproliferative Activity” (Journal of Medicinal Chemistry, 2020).

The structures appear in SMILES notation. ≈ marks a conversion by molar mass, not a printed value. Read-outs that look alike come from different tables or passages of the source.

For data set [1], the system named is DU145 cells. Description: cell viability MTT assay, DU145. It counts as cell-based, human. Conditions: mean ± SD of two experiments, read-out: DU145 antiproliferative activity IC50. The protocol:
(§1) The antiproliferative activity of all compounds was evaluated in (i) DU145, an androgen-independent prostate cancer cell line; (ii) HeLa, a cervical cancer cell line; and (iii) A549, a lung adenocarcinoma cell line (Table 1). […] Undoubtedly, this preliminary cytotoxicity data will need further characterization, also in relation to the in vitro activity of these compounds.
(§2) Human cancer cell lines A549 (lung adenocarcinoma, ATCC CCL-185), DU-145 (androgen-independent prostate cancer, ATCC HTB-81), and HeLa (cervical carcinoma, ATCC CCL-2) were obtained from ATCC. Cells were routinely grown in minimal essential medium containing Eagle’s salts and L-glutamine supplemented with 10% heat-inactivated FBS in a humidified atmosphere of 5% CO2 at 37 °C. To assess the antiproliferative activity of the compounds, cells were seeded at a density of 2500 cells/well (HeLa) or 5000 cells/well (A549, DU-145) in 96-well plates, and cell viability was measured using the MTT assay as described previously.[39] Values are reported as the mean ± SD of two independent experiments.

Data set [2] concerns HeLa cells. Description: cell viability MTT assay, HeLa. It is filed as cell-based, human. Conditions: HeLa cervical cancer cells, mean ± SD of two experiments, read-out: HeLa antiproliferative activity IC50. As to the method: as §1, §2
On the technique in general: Tetrazolium dyes change colour on reduction, which living cells bring about.

Data set [3] deals with T1, human topoIIα (Homo sapiens, UniProt P11388).
T1 construct: purchased Inspiralis
Description: topoII decatenation assay (Inspiralis). It counts as biochemical. The protocol:
We measured the inhibitor activity of our new compounds against human topoIIα, using a topoII decatenation assay (Table 1).
The activity of topoIIα was measured using a decatenation assay (Inspiralis) following the manufacturer’s instructions. Compounds were dissolved in DMSO and used at a concentration ranging from 200 to 1 μM. Final DMSO concentration in the assay was ≤1%. Reaction mixtures were incubated for 30 min at 37 °C and terminated with STEB buffer (40% (w/v) sucrose, 100 mM Tris-HCl, pH 8, 1 mM EDTA, 0.5 mg/mL bromophenol blue). Reaction products were resolved by electrophoresis in 1% agarose gels containing SYBR Safe DNA stain (Invitrogen), scanned, and quantified using the ChemiDoc system (BioRad). IC50 values were obtained with GraphPad Prism software (version 5.03) using the band intensities of the dose–response gels. Values are reported as the mean ± SD of two independent experiments.

Data set [4] has as its system A549 cells. Description: cell viability MTT assay, A549. It counts as cell-based, human. Conditions: mean ± SD of two experiments, read-out: A549 antiproliferative activity IC50. As to the method: as §1, §2
The nature of data set [5]: aqueous kinetic solubility. It counts as physicochemical. Conditions: PBS, pH 7.4, PBS pH 7.4, target 250 µM, 2.5% DMSO, 25°C. As to the method:
1. In vitro m etabolic stabili ty
In vitro microsomial stability. 10mM DMSO stock solution of test compound was pre-incubated at 37 °C for 15min with mouse liver microsomes added 0.1M Tris-HCl buffer (pH 7.4). The final concentration was 4.6µM. After pre -incubation, the co-factors (NADPH, G6P, G6PDH and MgCl2 pre-dissolved in 0.1M Tris-HCl) were added to the incubation mixture and the incubation was continued at 37 °C for 1h. At each time point (0, 5, 15, 30, 60min), 30µL of incubation mixture was diluted with 200µL cold CH 3CN spiked with 200n M of internal standard, followed by centrifugation at 3500g for 15min. The supernatant was further diluted with H2O (1:1) for analysis. The concentration of test compound was quantified by LC/MS-MS on a Waters ACQUITY UPLC/M S TQD system consisting of a TQD (Triple Quadrupole Detector) Mass Spectrometer equipped with an Electrospray Ionization interface. The analyses were run on an ACQUITY UPLC BEH C18 (50x2.1mmID, particle size 1.7µm) with a VanGuard BEH C18 pre -column (5x2.1mmID, particle size 1.7µm) at 40°C, using 0.1% HCOOH in H 2O (A) and 0.1% HCOOH in CH 3CN (B) as mobile phase. Electrospray ionization (ESI) was app lied in positive mode . The percentage of test compound remaining at each time point relative to t=0 was calculated. The half -lives (t½) were determined by an one-phase decay equation using a non -linear regression of compound concentration versus time.
In vitro Plasma Stability. 10mM DMSO stock solution of test compound was diluted 50 -fold with DMSO-H2O (1:1) and incubated at 37 °C for 2 h with mouse plasma added 5% DMSO (pre-heated at 37 °C for 10 min). The final concentration was 2µM. At each time point (0, 5, 15, 30, 60, 120min), 50 µL of incubation mixture was diluted with 200µL cold CH3CN spiked with 200nM of internal standard, followed by centrifugation at 3500g for 20min. The supernatant was further diluted with H2O (1:1) for analysis. The concentration of test compound was quantified by LC/MS-MS on a Waters ACQUITY UPLC/MS TQD system consisting of a TQD (Triple Quadrupole Detector) Mass Spectrometer equipped with an Electrospray Ionization interface. The analyses were run on an ACQUITY UPLC BEH C18 (50x2.1mmID, particle size 1.7µm) with a VanGuard BEH C18 pre - column (5x2.1mmID, particle size 1.7µm) at 40°C, using 0.1% HCOOH in H2O (A) and 0.1% HCOOH in CH3CN (B) as mobile phase. Electrospray ionization (ESI) was applied in positive mode.
The response factors, calculated on the basis of the internal standard peak area, were plotted over time. When possible, response vs. time profiles were fitted with Prism (GraphPad Software, Inc., USA) to estimate compounds half-life in plasma.
2. Aqueous ki netic solu bili ty
The aqueous kinetic solubility was determined from a 10mM DMSO stock solution of test compound in Phosphate Buffered Saline (PBS) at pH 7.4. The study was performed by incubation of an aliquot of 10mM DMSO stock solution in PBS (pH 7.4) at a target concentration of 250µM resulting in a final concentration of 2.5% DMSO. The incubation was carried out under shaking at 25°C for 24h followed by centrifugation at 21.100g for 30min. The supernatant was analyzed by UPLC/MS for the quantification of dissolved compound by UV at a specific wavelength (215nm).
The analyses were performed on a Waters ACQUITY UPLC/MS SQD system consisting of a SQD (Single Quadrupole Detector) Mass Spectrometer equipped with Electrospray Ionization interface.
The analyses were run on an ACQUITY UPLC BEH C18 column (50x2.1mmID, particle size 1.7µm) with a VanGuard BEH C18 pre-column (5x2.1mmID, particle size 1.7µm), using 10mM NH4OAc in H2O at pH 5 adjusted with AcOH (A) and 10mM NH4OAc in MeCN-H2O (95:5) at pH 5 (B) as […]

Where [6] appears, read: Homo sapiens, DU-145, DU145 prostate cancer cells.
Setting [7] is: human topoIIα decatenation assay, mean ± SD of two independent experiments, read-out: IC50.
The mark [8] stands for this setting: Homo sapiens, A549, A549 lung adenocarcinoma cells.
The mark [9] stands for this setting: topoIIα decatenation IC50 versus ARN16267.

T1 sequence (P11388 whole entry): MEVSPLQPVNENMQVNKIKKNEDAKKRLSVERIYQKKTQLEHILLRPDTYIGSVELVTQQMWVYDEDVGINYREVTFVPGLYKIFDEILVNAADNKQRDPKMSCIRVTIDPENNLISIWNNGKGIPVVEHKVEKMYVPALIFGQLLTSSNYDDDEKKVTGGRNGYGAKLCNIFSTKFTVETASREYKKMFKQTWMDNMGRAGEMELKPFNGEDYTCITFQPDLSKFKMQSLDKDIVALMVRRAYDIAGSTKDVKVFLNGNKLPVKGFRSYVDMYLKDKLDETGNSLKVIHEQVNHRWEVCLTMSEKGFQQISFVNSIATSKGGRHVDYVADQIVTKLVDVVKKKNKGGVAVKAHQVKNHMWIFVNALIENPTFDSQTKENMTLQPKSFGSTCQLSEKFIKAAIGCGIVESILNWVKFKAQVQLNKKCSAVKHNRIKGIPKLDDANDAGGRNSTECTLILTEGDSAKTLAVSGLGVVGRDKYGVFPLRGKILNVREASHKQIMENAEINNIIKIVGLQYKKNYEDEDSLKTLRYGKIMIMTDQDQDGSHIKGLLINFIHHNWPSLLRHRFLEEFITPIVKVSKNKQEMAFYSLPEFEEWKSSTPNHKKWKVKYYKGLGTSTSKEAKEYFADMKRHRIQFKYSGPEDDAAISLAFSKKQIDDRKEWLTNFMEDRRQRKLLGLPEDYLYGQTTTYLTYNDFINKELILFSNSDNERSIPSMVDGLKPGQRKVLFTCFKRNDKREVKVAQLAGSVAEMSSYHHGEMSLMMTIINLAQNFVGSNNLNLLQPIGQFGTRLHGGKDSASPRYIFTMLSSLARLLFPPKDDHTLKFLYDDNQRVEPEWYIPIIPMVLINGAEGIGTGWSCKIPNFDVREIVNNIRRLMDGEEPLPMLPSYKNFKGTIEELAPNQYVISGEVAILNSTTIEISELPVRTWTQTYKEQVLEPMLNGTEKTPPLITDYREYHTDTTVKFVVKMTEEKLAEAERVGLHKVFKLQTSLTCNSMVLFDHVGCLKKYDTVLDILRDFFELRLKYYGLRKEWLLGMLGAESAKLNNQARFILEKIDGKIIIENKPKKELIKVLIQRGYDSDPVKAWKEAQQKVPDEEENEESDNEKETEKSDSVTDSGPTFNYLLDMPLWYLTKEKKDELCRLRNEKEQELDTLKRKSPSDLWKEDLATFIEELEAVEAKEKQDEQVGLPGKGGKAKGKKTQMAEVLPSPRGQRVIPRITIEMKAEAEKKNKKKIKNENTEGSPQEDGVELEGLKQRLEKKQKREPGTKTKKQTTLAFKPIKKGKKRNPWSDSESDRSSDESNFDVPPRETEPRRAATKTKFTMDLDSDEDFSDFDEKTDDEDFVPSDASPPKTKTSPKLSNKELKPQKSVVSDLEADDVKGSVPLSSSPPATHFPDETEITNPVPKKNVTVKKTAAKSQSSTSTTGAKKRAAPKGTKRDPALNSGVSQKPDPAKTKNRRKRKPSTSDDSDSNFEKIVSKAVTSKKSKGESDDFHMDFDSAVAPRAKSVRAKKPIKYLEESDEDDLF

For the compound `COc1cc(NC(=O)c2c(O)n(-c3ccccc3)c(=S)n(-c3ccccc3)c2=O)ccc1F` [3j], the IC50 (in general, the concentration at which inhibition is half-maximal) amounted to 7.8 ± 0.6 µM in data set [1] (setting [6]); 5.3 ± 1 µM in data set [2] (Homo sapiens, HeLa); 22.5 ± 5.8 µM in data set [3] (setting [7]); 4.6 ± 0.1 µM in data set [4] (setting [8]).
Take `COc1cc(CNC(=O)c2c(O)n(-c3ccccc3)c(=S)n(-c3ccccc3)c2=O)cc(OC)c1O` [compound 6, 6-Hydroxy-N-(4-hydroxy-3,5-dimethoxybenzyl)-4-oxo-1,3-diphenyl-2-thioxo-1,2,3,4-tetrahydropyrimidine-5-carboxamide]: the IC50 was 8.8 ± 0.3 µM in data set [1] (setting [6]); 19.1 ± 4.8 µM in data set [2] (Homo sapiens, HeLa); over 100 µM in data set [3]; 108 ± 10.1 µM in data set [3] (setting [7]); 14.7 ± 0.3 µM in data set [4] (setting [8]). In data set [3] (setting [9]), the “fold drop in activity compared to ARN16267” value is on record as 7 fold.
`COc1cc(/C=C/CNC(=O)c2c(O)n(-c3ccccc3)c(=S)n(-c3ccccc3)c2=O)cc(OC)c1O` [compound 8, (E)-6-Hydroxy-N-(3-(4-hydroxy-3,5-dimethoxyphenyl)allyl)-4-oxo-1,3-diphenyl-2-thioxo-1,2,3,4-tetrahydropyrimidine-5-carboxamide]: the IC50 came out at 9.8 ± 2.1 µM in data set [1] (setting [6]); 9.3 ± 0.2 µM in data set [2] (Homo sapiens, HeLa); 28 ± 4.4 µM in data set [3] (setting [7]); 9.5 ± 1.5 µM in data set [4] (setting [8]).
As to `N#Cc1cccc(NC(=O)c2c(O)n(-c3ccccc3)c(=S)n(-c3ccccc3)c2=O)c1` [3c, N-(3-Cyanophenyl)-6-hydroxy-4-oxo-1,3-diphenyl-2-thioxo-1,2,3,4-tetrahydropyrimidine-5-carboxamide], the IC50 in data set [1] (setting [6]) turned out to be 14.4 ± 4.1 µM; in data set [2] (Homo sapiens, HeLa) it was 12.4 ± 1.3 µM; in data set [3] (setting [7]), 14.4 ± 3.8 µM; in data set [4] (setting [8]) it was 16.9 ± 0.3 µM.
`CC(F)(F)c1cccc(NC(=O)c2c(O)n(-c3ccccc3)c(=S)n(-c3ccccc3)c2=O)c1` [3h, N-(3-(1,1-Difluoroethyl)phenyl)-6-hydroxy-4-oxo-1,3-diphenyl-2-thioxo-1,2,3,4-tetrahydropyrimidine-5-carboxamide]: the kinetic solubility (commonly solubility judged after dilution from a stock solution rather than from solid) at 24 h in data set [5] worked out at 6 µM (≈ 2.88 µg/mL). Also, the 50% inhibitory concentration (IC50) was 2.7 ± 2.5 µM in data set [1] (DU145 prostate cancer cells); under 5 µM in data set [1] (setting [6]); 2.5 ± 0.4 µM in data set [2]; under 5 µM in data set [2] (Homo sapiens, HeLa); 9.2 ± 0.2 µM in data set [3] (setting [7]); 3 ± 1.1 µM in data set [4] (A549 lung adenocarcinoma cells). Besides, the IC50 in data set [4] (setting [8]) was under 5 µM.
With `O=C(Nc1cccc([N+](=O)[O-])c1)c1c(O)n(-c2ccccc2)c(=S)n(-c2ccccc2)c1=O` [3d, 6-Hydroxy-N-(3-nitrophenyl)-4-oxo-1,3-diphenyl-2-thioxo-1,2,3,4-tetrahydropyrimidine-5-carboxamide], the concentration for half-maximal inhibition (IC50) in data set [1] (setting [6]) was 6.9 ± 0.3 µM; in data set [2] (Homo sapiens, HeLa) it was 11.9 ± 2.6 µM; in data set [3] (setting [7]), 10.2 ± 4.6 µM; in data set [4] (setting [8]), 18.5 ± 3.1 µM.
In the case of `O=C(Nc1cccc(F)c1)c1c(O)n(-c2ccccc2)c(=S)n(-c2ccccc2)c1=O` [3e, N-(3-Fluorophenyl)-6-hydroxy-4-oxo-1,3-diphenyl-2-thioxo-1,2,3,4-tetrahydropyrimidine-5-carboxamide], the half-inhibitory concentration (IC50) is 5.6 ± 0.6 µM in data set [1] (setting [6]); 5.6 ± 0.5 µM in data set [2] (Homo sapiens, HeLa); 15.1 ± 4.2 µM in data set [3] (setting [7]); 4.1 ± 0.2 µM in data set [4] (setting [8]).
`COc1cccc(/C=C/CNC(=O)c2c(O)n(-c3ccccc3)c(=S)n(-c3ccccc3)c2=O)c1` [5f, (E)-6-Hydroxy-N-(3-(3-methoxyphenyl)allyl)-4-oxo-1,3-diphenyl-2-thioxo-1,2,3,4-tetrahydropyrimidine-5-carboxamide]: the IC50 was 5 ± 2.9 µM in data set [1] (setting [6]); 5.5 ± 1.1 µM in data set [2] (Homo sapiens, HeLa); 8.3 ± 2.3 µM in data set [3] (setting [7]); 4.4 ± 0.6 µM in data set [4] (setting [8]). The “fold increased activity compared to ARN16267” value in data set [3] (setting [9]) was 2 fold.
As for `COc1cc(CCNC(=O)c2c(O)n(-c3ccccc3)c(=S)n(-c3ccccc3)c2=O)cc(OC)c1O` [compound 7, 6-Hydroxy-N-(4-hydroxy-3,5-dimethoxyphenethyl)-4-oxo-1,3-diphenyl-2-thioxo-1,2,3,4-tetrahydropyrimidine-5-carboxamide], the 50% inhibitory concentration (IC50) in data set [1] (setting [6]) is 13.9 ± 7.6 µM; in data set [2] (Homo sapiens, HeLa), 13.3 ± 1.7 µM; in data set [3] (setting [7]), 74.4 ± 13.6 µM; in data set [4] (setting [8]), 14.8 ± 1.4 µM.
For `CCOc1cccc(NC(=O)c2c(O)n(-c3ccccc3)c(=S)n(-c3ccccc3)c2=O)c1` [3a, N-(3-Ethoxyphenyl)-6-hydroxy-4-oxo-1,3-diphenyl-2-thioxo-1,2,3,4-tetrahydropyrimidine-5-carboxamide], in that order: 5.7 ± 1.4 µM, 5.2 ± 0.9 µM, 12.4 ± 3.7 µM and 3.6 ± 0.4 µM.
As to `COc1cccc(CNC(=O)c2c(O)n(-c3ccccc3)c(=S)n(-c3ccccc3)c2=O)c1` [5d, 6-Hydroxy-N-(3-methoxybenzyl)-4-oxo-1,3-diphenyl-2-thioxo-1,2,3,4-tetrahydropyrimidine-5-carboxamide], the IC50 was 7.7 ± 0.1 µM in data set [1] (setting [6]); 6.1 ± 1.1 µM in data set [2] (Homo sapiens, HeLa); 22.5 ± 7.2 µM in data set [3] (setting [7]); 4.8 ± 0.4 µM in data set [4] (setting [8]). Besides, in data set [3] (setting [9]), the “fold drop in activity compared to ARN16267” value worked out at 1.4 fold.
